In paper PMC3348135, “Identification of New Agonists and Antagonists of the Insect Odorant Receptor Co-Receptor Subunit” (PLoS ONE, 2012):

How the values were obtained:
[1] = biological target: Cqui\Orco + Cqui\Or10 (Culex quinquefasciatus, UniProt D5LMR7+Q309I4); assay: Activation of Cqui\Orco + Cqui\Or10 in Xenopus oocytes, two-electrode voltage clamp; assay type: cell-based; conditions: 100 µM compound, mean ± SEM, n=3-8; for Emax at 100 µM: read-out: Response amplitude as percentage of response to 100 µM OLC3, Cqui\Orco + Cqui\Or10
Procedure: (§1) Oocytes were surgically removed from mature Xenopus laevis frogs. Follicle cells were removed by treatment with Collagenase B (Boehringer Mannhem) for 2 hours at room temperature. Capped cRNA encoding each DmOR subunit was generated using mMessage mMachine kits (Ambion). For heteromeric ORs, 25 ng of cRNA encoding each OR subunit was injected into Stage V-VI Xenopus oocytes. For expression of Orco alone, 50 ng of cRNA was injected. Oocytes were incubated at 18°C in Barth’s saline (in mM: 88 NaCl, 1 KCl, 2.4 NaHCO3, 0.3 CaNO3, 0.41 CaCl2, 0.82 MgSO4, 15 HEPES, pH 7.6, and 150 µg/ml ceftazidime) for 2–5 days prior to electrophysiological recording.
(§2) Odorant and Orco ligand induced currents were recorded under two-electrode voltage clamp in Xenopus laevis oocytes expressing ORs, using an automated parallel electrophysiology system (OpusExpress 6000A; Molecular Devices). Oocytes were perfused with ND96 (in mM: 96 NaCl, 2 KCl, 1 CaCl2, 1 MgCl2, 5 HEPES, pH 7.5). Odorant stock solutions (0.5 or 1 M) and Orco ligand stock solutions (100 mM) were prepared in DMSO and diluted in ND96. Unless otherwise noted, applications were for 60 sec at a flow rate of 1.0 ml/min, with extensive washing in ND96 (9 or 20 min at 4.6 ml/min) between applications. Micropipettes were filled with 3 M KCl and had resistances of 0.2−2.0 MΩ. The holding potential was −70 mV. Current responses, filtered (4-pole, Bessel, low pass) at 20 Hz (−3 db) and sampled at 100 Hz, were captured and stored using OpusXpress 1.1 software (Molecular Devices).
(§3) Initial analysis of electrophysiological data was done using Clampfit 9.1 software (Molecular Devices). Curve fitting and statistical analyses were done using Prism 5 (Graphpad). Concentration-response data were fit to the equation: I = Imax/(1+(EC50/X)^n) where I represents the current response at a given concentration of odorant, X; Imax is the maximal response; EC50 is the concentration of agonist yielding a half maximal response; n is the apparent Hill coefficient. Concentration-inhibition data were fit to the equation: I = Imax/(1+(X/IC50)^n) where I represents the current response at a given concentration of inhibitor, X; Imax is the maximal response in the absence of inhibitor; IC50 is the concentration of inhibitor present that still allows a half maximal response from odorant; n is the apparent Hill coefficient. Statistical significance was assessed using a two-tailed unpaired t test, an F test, or a one-way analysis of variance followed by the Bonferroni’s post-test, as appropriate.

[2] = biological target: T1, Dmel\Orco + Dmel\Or35a (Drosophila melanogaster, UniProt Q9VNB5); assay: Agonist activation of Dmel\Orco + Dmel\Or35a in Xenopus oocytes, two-electrode voltage clamp; assay type: cell-based; conditions: for Response amplitude as percentage of response to 100 µM OLC3, Dmel\Orco + Dmel\Or35a: 100 µM compound, mean ± SEM, n=3-8; for Emax at 100 µM: read-out: Response amplitude as percentage of response to 100 µM OLC3, Dmel\Orco + Dmel\Or35a
T1 construct: expressed in transfected cells; host or cells: Xenopus laevis oocytes (cRNA injection, pGEMHE)
T1 sequence (Q9VNB5 1-486): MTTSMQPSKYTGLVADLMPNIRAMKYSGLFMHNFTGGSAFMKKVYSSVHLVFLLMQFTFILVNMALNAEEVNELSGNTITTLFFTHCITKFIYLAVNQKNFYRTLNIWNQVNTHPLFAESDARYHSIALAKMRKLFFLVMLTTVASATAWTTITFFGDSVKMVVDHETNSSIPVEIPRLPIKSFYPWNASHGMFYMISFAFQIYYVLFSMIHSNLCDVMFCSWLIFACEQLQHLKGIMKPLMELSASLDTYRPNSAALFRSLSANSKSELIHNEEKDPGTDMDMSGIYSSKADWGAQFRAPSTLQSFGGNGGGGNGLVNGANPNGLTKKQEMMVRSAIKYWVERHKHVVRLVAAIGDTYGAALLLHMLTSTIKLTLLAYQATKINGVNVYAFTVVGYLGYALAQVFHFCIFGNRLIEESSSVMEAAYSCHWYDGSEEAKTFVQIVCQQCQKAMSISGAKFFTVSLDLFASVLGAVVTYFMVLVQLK
T1 sequence (Q9V3Q2 1-409 partner): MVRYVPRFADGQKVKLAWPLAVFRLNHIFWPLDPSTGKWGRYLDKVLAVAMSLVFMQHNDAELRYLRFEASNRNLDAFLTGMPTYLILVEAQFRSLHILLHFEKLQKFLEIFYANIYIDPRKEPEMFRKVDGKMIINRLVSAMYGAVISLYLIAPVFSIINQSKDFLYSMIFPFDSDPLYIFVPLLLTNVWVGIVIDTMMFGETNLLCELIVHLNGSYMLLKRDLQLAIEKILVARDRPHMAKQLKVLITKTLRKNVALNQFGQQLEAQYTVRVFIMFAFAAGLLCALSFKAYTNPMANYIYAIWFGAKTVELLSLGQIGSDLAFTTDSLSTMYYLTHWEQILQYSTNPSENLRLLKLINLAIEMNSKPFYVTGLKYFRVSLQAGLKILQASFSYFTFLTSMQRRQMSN
Procedure: as §1, §2, §3

[3] = test system: Cqui\Orco; assay: Agonist activation of homomeric Cqui\Orco in Xenopus oocytes, two-electrode voltage clamp; assay type: cell-based, Culex quinquefasciatus; conditions: 100 µM compound; mean ± SEM, n=3-8
[4] = test system: Onub\Orco + Onub\Or1; assay: Agonist activation of Onub\Orco + Onub\Or1 in Xenopus oocytes, two-electrode voltage clamp; assay type: cell-based, Ostrinia nubilalis; conditions: 100 µM compound; mean ± SEM, n=3-8
[5] = biological target: T2, Dmel\Orco (Drosophila melanogaster, UniProt Q9VNB5); assay: Agonist activation of homomeric Dmel\Orco in Xenopus oocytes, two-electrode voltage clamp; assay type: cell-based; conditions: for Response amplitude as percentage of response to 100 µM OLC3, Dmel\Orco: 100 µM compound, mean ± SEM, n=3-8; for Emax at 100 µM: read-out: Response amplitude as percentage of response to 100 µM OLC3, Dmel\Orco
T2 construct: expressed in transfected cells; host or cells: Xenopus laevis oocytes (cRNA injection, pGEMHE)
T2 sequence (Q9VNB5 1-486): T1 sequence (Q9VNB5 1-486)
Procedure: as §1, §2, §3

[6] = biological target: T2, Dmel\Orco; assay: Inhibition of OLC12 activation of Dmel\Orco in Xenopus oocytes; assay type: cell-based; conditions: for IC50: activated by 30 µM OLC12 (EC39)
Procedure: as §1, §2
(§4) In inhibition assays, oocytes were exposed to 60 sec applications of OLC12 with 9 min washes between applications (Fig. 3 and 4) or 60 sec applications of odorant with 20 min washes between applications (Fig. 5). Oocytes were then exposed to a 90 sec application of antagonist candidate, immediately followed by a 60 sec co-application of antagonist candidate and OLC12 or odorant. Oocytes were then exposed to a final 60 sec application of OLC12 or odorant. The current response in the presence of antagonist candidate was compared to the preceding response(s) to OLC12 (or odorant) alone.
as §3

[7] = biological target: T1, Dmel\Orco + Dmel\Or35a; assay: Inhibition of OLC12 activation of Dmel\Orco + Dmel\Or35a in Xenopus oocytes; assay type: cell-based; conditions: activated by 10 µM OLC12 (EC25); read-out: IC50, Dmel\Orco + Dmel\Or35a (activated by 10 µM OLC12)
Procedure: as §1, §2, §4, §3

[8] = biological target: T1, Dmel\Orco + Dmel\Or35a; assay: Inhibition of odorant (hexanol) activation of Dmel\Orco + Dmel\Or35a in Xenopus oocytes; assay type: cell-based; conditions: 3 µM hexanol; OLC2 100 µM, OLC15 50 µM, OLC20 200 µM
Procedure: as §1, §2
In inhibition assays, oocytes were exposed to 60 sec applications of OLC12 with 9 min washes between applications (Fig. 3 and 4) or 60 sec applications of odorant with 20 min washes between applications (Fig. 5). […]
Initial analysis of electrophysiological data was done using Clampfit 9.1 software (Molecular Devices). […] Statistical significance was assessed using a two-tailed unpaired t test, an F test, or a one-way analysis of variance followed by the Bonferroni’s post-test, as appropriate.

Chain of Cqui\Orco + Cqui\Or10 (D5LMR7 entry or part of it): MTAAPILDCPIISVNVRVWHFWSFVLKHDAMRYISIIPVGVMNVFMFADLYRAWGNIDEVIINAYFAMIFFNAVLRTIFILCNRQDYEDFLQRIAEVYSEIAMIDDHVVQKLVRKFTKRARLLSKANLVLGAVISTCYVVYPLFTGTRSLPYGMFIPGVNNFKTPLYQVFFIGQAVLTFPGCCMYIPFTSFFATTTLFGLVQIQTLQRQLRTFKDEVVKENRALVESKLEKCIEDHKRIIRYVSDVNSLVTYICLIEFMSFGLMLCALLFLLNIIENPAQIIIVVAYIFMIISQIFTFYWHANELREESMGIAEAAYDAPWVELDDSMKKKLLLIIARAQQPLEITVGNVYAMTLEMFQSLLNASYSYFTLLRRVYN
Chain of Cqui\Orco + Cqui\Or10 (Q309I4 entry or part of it): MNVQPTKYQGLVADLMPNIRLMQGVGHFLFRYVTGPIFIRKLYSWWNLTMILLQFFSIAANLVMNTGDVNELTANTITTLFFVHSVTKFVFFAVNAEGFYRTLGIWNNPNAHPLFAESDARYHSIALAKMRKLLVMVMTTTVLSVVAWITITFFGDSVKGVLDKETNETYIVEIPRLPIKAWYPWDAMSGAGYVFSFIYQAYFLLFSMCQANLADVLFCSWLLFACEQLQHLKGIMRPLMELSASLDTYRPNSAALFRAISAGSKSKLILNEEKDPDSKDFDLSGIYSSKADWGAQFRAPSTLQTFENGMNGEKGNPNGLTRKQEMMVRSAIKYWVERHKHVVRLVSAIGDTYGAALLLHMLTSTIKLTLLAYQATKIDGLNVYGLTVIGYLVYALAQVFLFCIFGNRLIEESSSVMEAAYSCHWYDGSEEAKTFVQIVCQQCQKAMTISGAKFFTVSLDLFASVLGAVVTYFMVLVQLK

Compound	Response amplitude as percentage of response to 100 µM OLC3, Cqui\Orco + Cqui\Or10 [1]	Response amplitude as percentage of response to 100 µM OLC3, Dmel\Orco + Dmel\Or35a [2]	Response amplitude as percentage of response to 100 µM OLC3, Cqui\Orco [3]	Response amplitude as percentage of response to 100 µM OLC3, Onub\Orco + Onub\Or1 [4]	Response amplitude as percentage of response to 100 µM OLC3, Dmel\Orco [5]	Inhibition of activation of Dmel\Orco by 30 µM OLC12 on co-application ([6]; 100 µM compound co-applied with 30 µM OLC12)	Emax at 100 µM [1]	Emax at 100 µM [2]	IC50 [7]	IC50 [6]	Emax at 100 µM [5]	Inhibition of the hexanol response of Dmel\Orco+Dmel\Or35a [8]
CCc1ccc(NC(=O)CSc2nnc(-c3cnccn3)n2CC)cc1 [OLC4]	0%	4 ± 1%	0%	4 ± 2%	0%	–	–	–	–	–	–	–
CCn1c(SCC(=O)Nc2ccc(C)cc2)nnc1-c1cccnc1 [OLC5]	16 ± 2%	4 ± 1%	0%	4 ± 2%	0%	–	–	–	–	–	–	–
CCn1c(SCC(=O)Nc2cccc(C)c2)nnc1-c1cccnc1 [OLC6]	0%	0%	4 ± 2%	0%	0%	–	–	–	–	–	–	–
CCn1c(SCC(=O)Nc2ccc(OC)cc2)nnc1-c1cccnc1 [OLC7]	4 ± 1%	4 ± 1%	4 ± 2%	0%	0%	–	–	–	–	–	–	–
CCc1ccccc1NC(=O)CSc1nnc(-c2cccnc2)n1CC [OLC8]	0%	0%	5 ± 3%	0%	0%	fails to block	–	–	–	–	–	–
CCCCc1ccc(NC(=O)CSc2nnc(-c3cccnc3)n2CC)cc1 [OLC9]	–	–	0%	3 ± 1%	–	–	0%	5 ± 2%	40 ± 9 µM	69 ± 7 µM	0%	–
CCn1c(SCC(=O)Nc2ccc(Br)cc2)nnc1-c1cccnc1 [OLC10]	27 ± 16%	25 ± 7%	0%	–	0%	–	–	–	–	–	–	–
CCn1c(SCC(=O)Nc2ccc(Cl)cc2)nnc1-c1cccnc1 [OLC11]	13 ± 3%	13 ± 2%	0%	–	0%	–	–	–	–	–	–	–
CCn1c(SCC(=O)Nc2ccc(C)c(C)c2)nnc1-c1ccncc1 [OLC13]	0%	0%	0%	–	0%	–	–	–	–	–	–	–
CCn1c(SCC(=O)Nc2ccc(N(C)C)cc2)nnc1-c1ccncc1 [OLC14]	–	–	0%	–	–	–	12 ± 2%	2 ± 1%	81 ± 23 µM	25 ± 4 µM	0%	–
Sc1nnc(-c2cccnc2)[nH]1 [OLC16]	0%	0%	3 ± 2%	–	0%	–	–	–	–	–	–	–
C=CCn1c(S)nnc1-c1cccnc1 [OLC17]	0%	0%	3 ± 2%	–	0%	–	–	–	–	–	–	–
Cn1cnnc1-c1ccncc1 [OLC18]	0%	0%	0%	–	0%	–	–	–	–	–	–	–
CCc1ccc(NC(C)=O)cc1 [OLC19]	0%	0%	3 ± 2%	–	0%	–	–	–	–	–	–	–
CCc1ccc(NC(=O)c2cccs2)cc1 [OLC20]	–	–	0%	–	–	–	11 ± 4%	0%	55 ± 15 µM	57 ± 19 µM	0%	substantial inhibition
CC(C)c1ccc(NC(=O)CSc2nnnn2C)cc1 [OLC21]	0%	0%	0%	–	0%	–	–	–	–	–	–	–
CCCCc1ccc(NC(=O)c2cccs2)cc1 [OLC22]	–	–	0%	–	–	–	0%	0%	26 ± 4 µM	52 ± 18 µM	0%	–
Cc1nnc(-c2ccccn2)[nH]1 [OLC23]	8 ± 3%	0%	0%	–	0%	–	–	–	–	–	–	–
